Drawing on patent publication US20250325687A1, “CONJUGATE COMPRISING TOLL-LIKE RECEPTOR AGONIST” (MABSOFT THERAPEUTICS (SHANGHAI) CO., LTD., priority 2022, published 2025), this text covers EC50 for 14 molecules.

Assay type in all cases: cell-based
Assay [1] has as its target T1, hTLR7 (human Toll-like receptor 7) (Homo sapiens, UniProt Q9NYK1).
T1 construct: host or cells: HEK-Blue hTLR7 (HEK293-derived reporter cells)
T1 sequence (Q9NYK1 27-1049): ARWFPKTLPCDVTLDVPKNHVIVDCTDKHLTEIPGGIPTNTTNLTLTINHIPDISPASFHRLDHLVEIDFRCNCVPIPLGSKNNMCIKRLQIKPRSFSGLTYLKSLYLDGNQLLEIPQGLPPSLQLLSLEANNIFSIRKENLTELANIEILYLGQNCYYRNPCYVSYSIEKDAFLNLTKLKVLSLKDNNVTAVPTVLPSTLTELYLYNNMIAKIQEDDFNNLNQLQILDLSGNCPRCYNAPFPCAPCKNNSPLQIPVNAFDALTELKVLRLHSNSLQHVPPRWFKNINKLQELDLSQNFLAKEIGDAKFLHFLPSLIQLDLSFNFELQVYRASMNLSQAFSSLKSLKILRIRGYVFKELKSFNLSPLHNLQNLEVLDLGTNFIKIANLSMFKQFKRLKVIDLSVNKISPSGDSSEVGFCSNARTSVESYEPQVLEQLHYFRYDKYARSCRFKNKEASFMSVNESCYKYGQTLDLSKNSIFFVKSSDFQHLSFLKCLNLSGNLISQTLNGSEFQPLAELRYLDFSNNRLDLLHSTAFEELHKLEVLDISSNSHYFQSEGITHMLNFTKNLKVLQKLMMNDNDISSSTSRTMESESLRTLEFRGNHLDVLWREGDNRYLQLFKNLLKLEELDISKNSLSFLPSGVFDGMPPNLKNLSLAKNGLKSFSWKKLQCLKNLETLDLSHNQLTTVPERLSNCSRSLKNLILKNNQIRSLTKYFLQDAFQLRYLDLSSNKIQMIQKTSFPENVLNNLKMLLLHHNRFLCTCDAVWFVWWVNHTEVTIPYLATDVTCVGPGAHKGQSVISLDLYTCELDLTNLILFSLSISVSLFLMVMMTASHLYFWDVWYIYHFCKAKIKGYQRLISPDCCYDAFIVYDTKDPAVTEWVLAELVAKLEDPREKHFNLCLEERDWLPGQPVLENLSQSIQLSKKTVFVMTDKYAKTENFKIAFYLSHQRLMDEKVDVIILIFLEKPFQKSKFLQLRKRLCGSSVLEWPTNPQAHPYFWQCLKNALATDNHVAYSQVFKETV
The experiment in a line: hTLR7 cell assay (HEK-Blue hTLR7 reporter cells). Particulars: 24 hours, OD 650 nm. The gist of the method: (§1)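 HEK-Blue reporter cells in HEK-Blue Detection medium (50000 cells/mL) were exposed to test compounds for 24 hours at 37° C, 5% CO2. Agonism was read from supernatant incubated 1 hour at 37° C with QUANTI-Blue, measured as optical density at 650 nm.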

Assay [2] has as its system human PBMC (human peripheral blood mononuclear cells). The experiment in a line: PBMC screening assay: induction of TNF-α production. Particulars: read-out: EC50 (μM) TNF-α (hPBMC). The protocol:
The payload compounds of Formula (II′) were assayed to evaluate the induction of TNF-α production in human PBMC (human peripheral blood mononuclear cells).
Human peripheral blood mononuclear cells (PBMC) were obtained from Allcells. […] PBMC were incubated for 24 hours at 37° C. in a 5% CO2 humidified incubator. The following day PBMC plates were centrifuged at 500×g for 5 minutes and the growth media was removed. 200 μL of compound prepared in growth media at a series of diluted concentrations ranging from 2.54 nM to 50 μM were added to PBMC in duplicate and incubated for 24 hours at 37° C. in a 5% CO2 incubator. Prior to supernatant harvest, cells were spun at 500×g for 5 minutes to remove cell debris. TNF-α activity was assessed in the supernatant by ELISA (Elabscience) per the manufacturer's instructions. Optical density at 450 nm (ELISA) was analyzed using a plate reader.

Assay [3] deals with T2, hTLR8 (human Toll-like receptor 8) (Homo sapiens, UniProt Q9NR97).
T2 construct: host or cells: HEK-Blue hTLR8 (HEK293-derived reporter cells)
T2 sequence (Q9NR97 27-1041): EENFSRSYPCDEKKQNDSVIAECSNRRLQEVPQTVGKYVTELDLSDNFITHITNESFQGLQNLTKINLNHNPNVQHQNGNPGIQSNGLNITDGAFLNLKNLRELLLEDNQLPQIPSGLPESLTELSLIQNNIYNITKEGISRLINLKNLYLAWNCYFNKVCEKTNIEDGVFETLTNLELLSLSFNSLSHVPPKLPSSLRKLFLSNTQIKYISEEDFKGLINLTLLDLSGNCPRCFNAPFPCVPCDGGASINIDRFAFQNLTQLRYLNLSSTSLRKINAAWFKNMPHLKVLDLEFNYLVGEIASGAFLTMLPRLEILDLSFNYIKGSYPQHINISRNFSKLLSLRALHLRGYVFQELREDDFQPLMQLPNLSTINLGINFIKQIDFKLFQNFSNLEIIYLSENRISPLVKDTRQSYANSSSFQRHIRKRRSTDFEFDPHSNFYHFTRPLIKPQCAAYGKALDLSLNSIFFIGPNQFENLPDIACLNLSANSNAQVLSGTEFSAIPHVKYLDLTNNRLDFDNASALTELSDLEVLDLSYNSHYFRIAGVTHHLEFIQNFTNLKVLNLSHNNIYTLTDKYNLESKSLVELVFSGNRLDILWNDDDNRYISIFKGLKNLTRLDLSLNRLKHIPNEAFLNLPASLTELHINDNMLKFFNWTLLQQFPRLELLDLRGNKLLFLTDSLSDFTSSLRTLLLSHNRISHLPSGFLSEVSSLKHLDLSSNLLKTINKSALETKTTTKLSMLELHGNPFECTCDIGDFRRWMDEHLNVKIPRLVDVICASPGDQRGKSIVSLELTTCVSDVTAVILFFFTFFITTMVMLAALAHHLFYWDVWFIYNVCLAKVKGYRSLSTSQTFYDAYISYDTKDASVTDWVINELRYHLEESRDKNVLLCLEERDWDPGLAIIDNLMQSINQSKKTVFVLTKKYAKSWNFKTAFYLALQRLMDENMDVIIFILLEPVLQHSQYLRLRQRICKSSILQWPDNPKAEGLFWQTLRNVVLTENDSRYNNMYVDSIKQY
Description: hTLR8 cell assay (HEK-Blue hTLR8 reporter cells). Particulars: 24 hours, OD 650 nm. In a few lines: as §1

Setting [4] is: human PBMC, 24 hours, TNF-α by ELISA, class symbols.

Read-outs that look alike come from different tables or passages of the source.

`CCCCc1nc2c(N)nc3cc(Cc4cccc(C(=O)NCCN)c4)ccc3c2n1CC(C)(C)O` [Compound 64, 3-((4-amino-2-butyl-1-(2-hydroxy-2-methylpropyl)-1H-imidazo[4,5-c]quinolin-7-yl)methyl)-N-(2-aminoethyl)benzamide]: the values for the concentration giving a half-maximal response (EC50) in assay [1], in assay [2] (setting [4]) and in assay [3] were 1000 to 10000 nM, under 0.64 µM and under 5000 nM, respectively.

As to `CCCCc1nc2c(N)nc3cc(Cc4cccc(CNC(=O)CN)c4)ccc3c2n1CC(C)(C)O` [Compound 66, 2-amino-N-(3-((4-amino-2-butyl-1-(2-hydroxy-2-methylpropyl)-1H-imidazo[4,5-c]quinolin-7-yl)methyl)benzyl)acetamide], the 50% effective concentration (EC50) in assay [1] was 1000 to 10000 nM; in assay [2] (setting [4]) it was over 0.64 µM; in assay [3], under 5000 nM.

With `CCCCc1nc2c(N)nc3cc(Cc4cccc(OCCN)c4)ccc3c2n1CC(C)(C)O` [Compound 62, 1-(4-amino-7-(3-(2-aminoethoxy)benzyl)-2-butyl-1H-imidazo[4,5-c]quinolin-1-yl)-2-methylpropan-2-ol], the figures for the EC50 in assay [1], in assay [2] (setting [4]) and in assay [3] were under 1000 nM, under 0.64 µM and under 5000 nM, respectively.

For the molecule `CC(C)(O)Cn1c(COC2CC2)nc2c(N)nc3cc(Cc4cccc(CN)c4)ccc3c21` [Compound 55, 1-(4-amino-7-(3-(aminomethyl)benzyl)-2-(cyclopropoxymethyl)-1H-imidazo[4,5-c]quinolin-1-yl)-2-methylpropan-2-ol], the EC50 in assay [1] is under 1000 nM; in assay [2] (setting [4]), under 0.64 µM; in assay [3] it was under 5000 nM.

As for `CCOCc1nc2c(N)nc3cc(Cc4ccc(CCCN)cc4)ccc3c2n1CC(C)(C)O` [Compound 3, 1-(4-amino-7-(4-(3-aminopropyl)benzyl)-2-(ethoxymethyl)-1H-imidazo[4,5-c]quinolin-1-yl)-2-methylpropan-2-ol], the EC50 was 1000 to 10000 nM in assay [1]; over 0.64 µM in assay [2] (Homo sapiens, PBMC, 24 h); 5000 to 20000 nM in assay [3].

In the case of `CCOCc1nc2c(N)nc3cc(Cc4cccc(N5CCNCC5)c4)ccc3c2n1CC(C)(C)O` [Compound 153, 1-(4-amino-2-(ethoxymethyl)-7-(3-(piperazin-1-yl)benzyl)-1H-imidazo[4,5-c]quinolin-1-yl)-2-methylpropan-2-ol], the 50% effective concentration (EC50) was under 1000 nM in assay [1], under 0.64 µM in assay [2] (setting [4]) and under 5000 nM in assay [3].

With `CCOCc1nc2c(N)nc3cc(Cc4cccc(CN)c4)ccc3c2n1CC(C)(C)O` [Compound 4, 1-(4-amino-7-(3-(aminomethyl)benzyl)-2-(ethoxymethyl)-1H-imidazo[4,5-c]quinolin-1-yl)-2-methylpropan-2-ol], the EC50 in assay [1] is under 1000 nM; in assay [2] (Homo sapiens, PBMC, 24 h), over 0.64 µM; in assay [3], under 5000 nM.

Take `CCOCc1nc2c(N)nc3cc(Cc4ccccc4)ccc3c2n1CC(C)(C)OCCN` [Compound 23, 1-(2-(2-aminoethoxy)-2-methylpropyl)-7-benzyl-2-(ethoxymethyl)-1H-imidazo[4,5-c]quinolin-4-amine]: the values for the EC50 in assay [1], in assay [2] (setting [4]) and in assay [3] were 1000 to 10000 nM, over 0.64 µM and under 5000 nM, respectively.

For `CCOCc1nc2c(N)nc3cc(Cc4ccc(CCN)cc4)ccc3c2n1CC(C)(C)O` [Compound 2, 1-(4-amino-7-(4-(2-aminoethyl)benzyl)-2-(ethoxymethyl)-1H-imidazo[4,5-c]quinolin-1-yl)-2-methylpropan-2-ol], the EC50 is 1000 to 10000 nM in assay [1]; over 0.64 µM in assay [2] (Homo sapiens, PBMC, 24 h); 5000 to 20000 nM in assay [3].

Turning to `CCOCc1nc2c(N)nc3cc(Cc4ccc5c(c4)CCNC5)ccc3c2n1CC(C)(C)O` [Compound 152, 1-(4-amino-2-(ethoxymethyl)-7-((1,2,3,4-tetrahydroisoquinolin-6-yl)methyl)-1H-imidazo[4,5-c]quinolin-1-yl)-2-methylpropan-2-ol], the concentration for a half-maximal effect (EC50) in assay [1] was under 1000 nM; in assay [2] (setting [4]), under 0.64 µM; in assay [3], under 5000 nM.

As for `CCC[C@@H](C)c1nc2c(N)nc3cc(Cc4ccc(CCN)cc4)ccc3c2n1CC(C)(C)O` [Compound 9, (R)-1-(4-amino-7-(4-(2-aminoethyl)benzyl)-2-(pentan-2-yl)-1H-imidazo[4,5-c]quinolin-1-yl)-2-methylpropan-2-ol], the EC50 was over 10000 nM in assay [1]; under 0.64 µM in assay [2] (Homo sapiens, PBMC, 24 h); over 20000 nM in assay [3].

For `CC(C)(O)Cn1c(CCCC(F)(F)F)nc2c(N)nc3cc(Cc4cccc(CN)c4)ccc3c21` [Compound 51, 1-(4-amino-7-(3-(aminomethyl)benzyl)-2-(4,4,4-trifluorobutyl)-1H-imidazo[4,5-c]quinolin-1-yl)-2-methylpropan-2-ol], the half-maximal effective concentration (EC50) in assay [1] is under 1000 nM; in assay [2] (setting [4]), over 0.64 µM; in assay [3], under 5000 nM.

For `CCOCc1nc2c(N)nc3cc(Cc4ccccc4)ccc3c2n1CC1(OCCN)CC1` [Compound 44], the EC50 in assay [1] is 1000 to 10000 nM; in assay [2] (Homo sapiens, PBMC, 24 h) it was over 0.64 µM; in assay [3], under 5000 nM.

Consider `CCC[C@@H](C)c1nc2c(N)nc3cc(Cc4ccccc4)ccc3c2n1CC(C)(C)OCCN` [Compound 30, (R)-1-(2-(2-aminoethoxy)-2-methylpropyl)-7-benzyl-2-(pentan-2-yl)-1H-imidazo[4,5-c]quinolin-4-amine], for which the EC50 in assay [1] is 1000 to 10000 nM; in assay [2] (setting [4]), over 0.64 µM; in assay [3] it was under 5000 nM.
